Like-named read-outs stand apart in the source and are kept apart here.
Tests used:
HUVECs = assay: Tube formation (tubulogenesis) assay in HUVECs, 18 h; format: cell-based, human; conditions: Homo sapiens, HUVEC, 18 h, HUVECs; for activity at 0.1 µM: 0.10 µM; for minimal effective concentration: top concentration 100.00 µM
Procedure, shortened: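 HUVECs (passage 1–5) seeded on reduced-growth-factor basement membrane and exposed to compounds overnight at 37°C, 5% CO2, in 2× maintenance medium with 12.5 ng/mL VEGF; 0.5% DMSO vehicle. Calcein AM-stained tube networks imaged and analysed; vehicle-normalized readouts fit to four-parameter logistic, POD set at one SD of vehicle means.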

[1] = system: iCell endothelial cells (human iPSC-derived ECs); assay: High-content imaging cytotoxicity in iCell endothelial cells, 24 h; format: cell-based; conditions: Homo sapiens, Endothelial cell, iPSC-EC, 24 hr; for viability at 0.1 µM / activity at 0.1 µM: 0.10 µM; for minimal effective concentration: top concentration 100.00 µM
Procedure, shortened: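 Readouts were vehicle-normalised and fitted to a four-parameter logistic model. POD was set at one SD beyond 0.5% DMSO control means, and 100 µM was assigned when no response was seen. Cells were monolayers of iCell endothelial cells imaged after 24 h compound exposure using nuclear, mitochondrial and calcein dyes.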

[2] = 0.00 µM = 100.00, read-out: huvec.mtl.18hr
[3] = 0.00 µM = 100.00, read-out: huvec.tlps.18hr
[4] = 0.00 µM = 100.00, read-out: huvec.tta.18hr
[5] = 0.00 µM = 100.00, read-out: huvec.ttl.18hr
[6] = 0.00 µM control = 100.00, read-out: endo.cyto.24hr
[7] = 0.00 µM control = 100.00, read-out: endo.mito.24hr
[8] = 0.00 µM control = 100.00, read-out: endo.mitoint.24hr
[9] = 0.00 µM control = 100.00, read-out: endo.nma.24hr
[10] = 0.00 µM control = 100.00, read-out: endo.tc.24hrs
[11] = read-out: endo.mitoint.24hr POD

SMILES: Clc1ccc(Cl)c(-c2cc(Cl)ccc2Cl)c1 [PCB52]
- activity at 0.01 µM (HUVECs; [2]): 105%
- activity at 0.01 µM (HUVECs; [3]): 114%
- activity at 0.01 µM (HUVECs; [4]): 103%
- activity at 0.01 µM (HUVECs; [5]): 94.1%
- activity at 0.1 µM (HUVECs; [2]): 111%
- activity at 0.1 µM (HUVECs; [3]): 126%
- activity at 0.1 µM (HUVECs; [4]): 105%
- activity at 0.1 µM (HUVECs; [5]): 94.2%
- activity at 1 µM (HUVECs; [2]): 108%
- activity at 1 µM (HUVECs; [3]): 121%
- activity at 1 µM (HUVECs; [4]): 86.8%
- activity at 1 µM (HUVECs; [5]): 81.6%
- activity at 10 µM (HUVECs; [2]): 100%
- activity at 10 µM (HUVECs; [3]): 95%
- activity at 10 µM (HUVECs; [4]): 99.7%
- activity at 10 µM (HUVECs; [5]): 94.2%
- activity at 100 µM (HUVECs; [2]): 97.2%
- activity at 100 µM (HUVECs; [3]): 114%
- activity at 100 µM (HUVECs; [4]): 94.8%
- activity at 100 µM (HUVECs; [5]): 83.5%
- minimal effective concentration (HUVECs; read-out: huvec.mtl.18hr POD): 100 µM
- minimal effective concentration (HUVECs; read-out: huvec.tlps.18hr POD): 100 µM
- minimal effective concentration (HUVECs; read-out: huvec.tta.18hr POD): 100 µM
- minimal effective concentration (HUVECs; read-out: huvec.ttl.18hr POD): 100 µM
- viability at 0.01 µM [1, 6]: 100%
- activity at 0.01 µM [1, 7]: 99.8%
- activity at 0.01 µM [1, 8]: 92.8%
- activity at 0.01 µM [1, 9]: 103%
- viability at 0.01 µM [1, 10]: 100%
- viability at 0.1 µM [1, 6]: 98.4%
- activity at 0.1 µM [1, 7]: 97.7%
- activity at 0.1 µM [1, 8]: 87.4%
- activity at 0.1 µM [1, 9]: 103%
- viability at 0.1 µM [1, 10]: 98.4%
- viability at 1 µM [1, 6]: 97.6%
- activity at 1 µM [1, 7]: 97.5%
- activity at 1 µM [1, 8]: 92%
- activity at 1 µM [1, 9]: 100%
- viability at 1 µM [1, 10]: 97.6%
- viability at 10 µM [1, 6]: 99.3%
- activity at 10 µM [1, 7]: 99.4%
- activity at 10 µM [1, 8]: 86.3%
- activity at 10 µM [1, 9]: 101%
- viability at 10 µM [1, 10]: 99.3%
- viability at 100 µM [1, 6]: 97.2%
- activity at 100 µM [1, 7]: 97.4%
- activity at 100 µM [1, 8]: 83.6%
- activity at 100 µM [1, 9]: 100%
- viability at 100 µM [1, 10]: 97.2%
- minimal effective concentration ([1]; read-out: endo.cyto.24hr POD): 100 µM
- minimal effective concentration ([1]; read-out: endo.mito.24hr POD): 100 µM
- minimal effective concentration [1, 11]: 100 µM
- minimal effective concentration ([1]; read-out: endo.nma.24hr POD): 100 µM
- minimal effective concentration ([1]; read-out: endo.tc.24hrs POD): 100 µM

SMILES: Oc1cc(Cl)cc(-c2cccc(Cl)c2)c1 [5-OH PCB 11]
- activity at 0.01 µM (HUVECs; [2]): 117%
- activity at 0.01 µM (HUVECs; [3]): 148%
- activity at 0.01 µM (HUVECs; [4]): 116%
- activity at 0.01 µM (HUVECs; [5]): 106%
- activity at 0.1 µM (HUVECs; [2]): 121%
- activity at 0.1 µM (HUVECs; [3]): 186%
- activity at 0.1 µM (HUVECs; [4]): 123%
- activity at 0.1 µM (HUVECs; [5]): 106%
- activity at 1 µM (HUVECs; [2]): 103%
- activity at 1 µM (HUVECs; [3]): 111%
- activity at 1 µM (HUVECs; [4]): 113%
- activity at 1 µM (HUVECs; [5]): 104%
- activity at 10 µM (HUVECs; [2]): 81.1%
- activity at 10 µM (HUVECs; [3]): 102%
- activity at 10 µM (HUVECs; [4]): 76.5%
- activity at 10 µM (HUVECs; [5]): 67.6%
- activity at 100 µM (HUVECs; [2]): 63%
- activity at 100 µM (HUVECs; [3]): 38.8%
- activity at 100 µM (HUVECs; [4]): 111%
- activity at 100 µM (HUVECs; [5]): 94.6%
- minimal effective concentration (HUVECs; read-out: huvec.mtl.18hr POD): 6.98 µM
- minimal effective concentration (HUVECs; read-out: huvec.tlps.18hr POD): 100 µM
- minimal effective concentration (HUVECs; read-out: huvec.tta.18hr POD): 100 µM
- minimal effective concentration (HUVECs; read-out: huvec.ttl.18hr POD): 32.7 µM
- viability at 0.01 µM [1, 6]: 99.9%
- activity at 0.01 µM [1, 7]: 100%
- activity at 0.01 µM [1, 8]: 96.8%
- activity at 0.01 µM [1, 9]: 101%
- viability at 0.01 µM [1, 10]: 99.9%
- viability at 0.1 µM [1, 6]: 100%
- activity at 0.1 µM [1, 7]: 100%
- activity at 0.1 µM [1, 8]: 93.5%
- activity at 0.1 µM [1, 9]: 100%
- viability at 0.1 µM [1, 10]: 100%
- viability at 1 µM [1, 6]: 102%
- activity at 1 µM [1, 7]: 103%
- activity at 1 µM [1, 8]: 92.3%
- activity at 1 µM [1, 9]: 99.2%
- viability at 1 µM [1, 10]: 102%
- viability at 10 µM [1, 6]: 102%
- activity at 10 µM [1, 7]: 103%
- activity at 10 µM [1, 8]: 107%
- activity at 10 µM [1, 9]: 98.6%
- viability at 10 µM [1, 10]: 102%
- viability at 100 µM [1, 6]: 19.9%
- activity at 100 µM [1, 7]: 30.3%
- activity at 100 µM [1, 8]: 62.5%
- activity at 100 µM [1, 9]: 79.6%
- viability at 100 µM [1, 10]: 47.2%
- minimal effective concentration ([1]; read-out: endo.cyto.24hr POD): 42.3 µM
- minimal effective concentration ([1]; read-out: endo.mito.24hr POD): 42.3 µM
- minimal effective concentration [1, 11]: 55 µM
- minimal effective concentration ([1]; read-out: endo.nma.24hr POD): 14.2 µM
- minimal effective concentration ([1]; read-out: endo.tc.24hrs POD): 43.2 µM

From paper PMC7377239, “Cardiovascular Effects of Polychlorinated Biphenyls and Their Major Metabolites” (Environmental Health Perspectives, 2020)
